Data from patent US4510338A, “Resorcin derivatives, process for their preparation and pharmaceutical compositions containing them” (priority 1982, dated 1985).

Tests used:
[1] = in vivo; details: rat, oral, male Hann.-Wistar rats, 14 days observation, probit analysis
Experimental: The acute toxicity of the compounds according to the invention was tested on male Hann.-Wistar rats each weighing 160 to 180 g. The animals were treated with various doses of the test compounds orally, and the dose resulting in the perish of 50% of the animals was calculated by probite analysis from the %-age of the perished animals.

[2] = tested on: ethanolic locomotor activity; assay: Locomotor activity change by ethanol (Animex BSE motimeter); assay type: in vivo, BALB/c mice; details: n=15
Experimental: The change of ethanolic locomotor activity was tested on BALB/c mice of both sexes, weighing 16 to 18 g. each. Groups of 15 were treated with a 40 mg./kg. oral dose of the test compound 60 minutes prior to the administration of placebo and 2 g./kg. ethanol, respectively (i.p.).
The control animals were treated with placebo. The locomotor activity of the animals was measured for two hours with an Animex BSE motimeter.

[3] = tested on: ethanolic narcosis; assay: Ethanolic narcosis period (righting reflex); assay type: in vivo, Hann.-Wistar rats; details: for Ethanolic narcosis period (x ± S.E. %), related to control: 1 h before 3.5 g/kg ethanol i.p., n=10
Experimental: The change of ethanolic narcosis period was tested on Hann.-Wistar rats of both sexes weighing 160 to 180 g. each, which were fasted for 16 hours prior to treatment. Groups of ten were treated with various doses of a test compound of the formula (I), orally. One hour after treatment the rats were administered a 3.5 g./kg. dose of ethanol intraperitoneally. The narcosis period of the animals was measured from the elapse of the righting reflex until a spontaneous correction of the body position. The average of the narcosis period and the percentage difference related to the control were calculated. The control group was treated with placebo and a […]. dose of ethanol. Control narcosis period: 99.6±6.55 (x±S.E.) min.

[4] = tested on: ataxia induced by ethanol; assay: Ataxia induced by ethanol, rotarod test; assay type: in vivo, BALB/c mice
Experimental: Previously trained and selected BALB/c mice weighing 16 to 18 g. each were treated with a 40 mg./kg. dose of the compound to be tested orally, one hour before the intraperitoneal administration of a 2.5 g./kg. dose of ethanol. The number of the animals remaining on the rods 60, 90 and 120 minutes, resp., after treatment with ethanol was determined. The animals having an intact coordination could stay at the rod as long as 120 minutes. The test was carried out on groups of ten.

[5] = tested on: alcoholic intoxication, narcosis; details: Sprince et al. 1974; Nagasawa et al. 1975; cited from earlier work
[6] = tested on: ethanolic locomotoric hyperactivity; details: mice, Carlsson et al. 1972, cited from earlier work

SMILES: CCC(O)(c1cccc(C(F)(F)F)c1)c1ccc(O)cc1O (stereo not drawn) [A, 4-[1-(3-trifluoromethylphenyl)-1-hydroxypropyl]-resorcin]
- LD50 at 336 h [1]: 1250 mg/kg
- Total locomotor motion/2 hours in % of the control ([2]; 40 mg/kg oral + placebo (no ethanol)): 110 ± 10.3%
- Total locomotor motion/2 hours in % of the control ([2]; 40 mg/kg oral, 60 min before 2000 mg/kg ethanol i.p.): 98 ± 9.5%
- Ethanolic narcosis period (x ± S.E. %), related to control ([3]; 0.3 mg/kg orally): 70 ± 11.4%
- Ethanolic narcosis period (x ± S.E. %), related to control ([3]; 1.0 mg/kg orally): 60 ± 9.2%
- Ethanolic narcosis period (x ± S.E. %), related to control ([3]; 5.0 mg/kg orally): 36 ± 4.0%
- Ethanolic narcosis period (x ± S.E. %), related to control ([3]; 20.0 mg/kg orally): 30 ± 5.5%
- Animals remaining on the rotating rod (%) ([4]; 40 mg/kg oral + 2500 mg/kg ethanol i.p., 60 min): 40%
- Animals remaining on the rotating rod (%) ([4]; 40 mg/kg oral + 2500 mg/kg ethanol i.p., 90 min): 60%
- Animals remaining on the rotating rod (%) ([4]; 40 mg/kg oral + 2500 mg/kg ethanol i.p., 120 min): 100%
- Animals remaining on the rotating rod (%) ([4]; 40 mg/kg oral, no ethanol, 60 min): 100%
- Animals remaining on the rotating rod (%) ([4]; 40 mg/kg oral, no ethanol, 90 min): 100%
- Animals remaining on the rotating rod (%) ([4]; 40 mg/kg oral, no ethanol, 120 min): 100%

SMILES: N[C@@H](CS)C(=O)O [L-cysteine, reference compound]
- Alcoholic intoxication, narcosis duration [5]: shortened
- Ethanolic narcosis period (x ± S.E. %), related to control ([3]; 500.0 mg/kg orally): 63 ± 4.2%
- Dose dependence of effect on ethanolic narcosis period ([3]; rats, oral): dose-dependent, unlike that of L-cysteine

SMILES: CC(N)(Cc1ccc(O)cc1)C(=O)O (stereo not drawn) [α-Methyl-para-tyrosine]
- Spontaneous locomotoric activity ([6]; same dose range): decreases the spontaneous locomotoric activity
- Ethanolic locomotoric hyperactivity [6]: normalizes the ethanolic locomotoric hyperactivity
